Converted amounts (≈) assume the structure as drawn.
Assay: physchem
Source text: The solvents and co-solvents are listed by percentage of volume.

solubility (aqueous with cosolvent or surfactant or cyclodextrin, solvent 2-P 56%, co-solvent Water 44%, approximate): 56 mg/mL (≈ 71.7 mM)
solubility (aqueous with cosolvent or surfactant or cyclodextrin, solvent 55% Water, co-solvent 45% H-107, approximate): 52 mg/mL (≈ 66.6 mM)
solubility (aqueous with cosolvent or surfactant or cyclodextrin, solvent Ethanol 80%, co-solvent Water 17%, additive Glycerin 3%, approximate): 9 mg/mL (≈ 11.5 mM)
solubility (organic solvent or mixture, solvent 1,5-pentanediol, approximate): < 21.9 mg/mL
solubility (organic solvent or mixture, solvent 2-P 80%, co-solvent Ethanol 20%, approximate): ≥ 75 mg/mL
solubility (organic solvent or mixture, solvent 2-P 100%, approximate): 102 mg/mL (≈ 131 mM)
solubility (organic solvent or mixture, solvent Acetone, approximate): < 30 mg/mL
solubility (organic solvent or mixture, solvent DMSO 80%, co-solvent (EtOH) ethanol alcohol 20%, approximate): 200 mg/mL (≈ 256 mM)
solubility (organic solvent or mixture, solvent Ethanol 100%, approximate): 9 mg/mL (≈ 11.5 mM)
solubility (organic solvent or mixture, solvent Ethyl acetate, approximate): < 16.3 mg/mL
solubility (organic solvent or mixture, solvent Ethylene glycol (LEG), approximate): < 16.3 mg/mL
solubility (organic solvent or mixture, solvent Glycerine, approximate): < 14.2 mg/mL
solubility (organic solvent or mixture, solvent Polyethylene glycol 400 90% Absolute ethanol 6%, co-solvent Water 1%, additive Propylene glycol 3%, approximate): 0.25 mg/mL (≈ 0.32 mM)
solubility (organic solvent or mixture, solvent Polyethylene glycols (PEGs), approximate): < 19.3 mg/mL
solubility (water, solvent Water, approximate): 0.024 to 0.07 mg/mL (≈ 0.0307 to 0.0896 mM)
SMILES: C[C@H]1O[C@@H](O[C@H]2[C@@H](O)C[C@H](O[C@H]3[C@@H](O)C[C@H](O[C@H]4CC[C@@]5(C)[C@H](CC[C@@H]6[C@@H]5C[C@@H](O)[C@]5(C)[C@@H](C7=CC(=O)OC7)CC[C@]65O)C4)O[C@@H]3C)O[C@@H]2C)C[C@H](O)[C@@H]1O [Digoxin]
